PubChem BioAssay AID977605 (Broad Institute, 2014)
Calls of active or inactive are those of the source.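 How the source made its calls: active means fitted curve reaches 40% activation below the top valid tested dose, in every test run; inconclusive means test runs disagree on the call; inactive means the rest, including effects opposite to the expected direction.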

Assay: endothelial E-selectin upregulation by compounds – imaging, HUVEC, cherry-picked samples, dose response (AID 977605);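 further: signal is the share of imaged cells scored positive for E-selectin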
Settings: HUVEC E-selectin immunostaining, at 18 µM (top of the series), percent of TNF-alpha response over vehicle
With CN1c2ccc(C#Cc3cccnc3)cc2[C@@H]2[C@@H](CCN2C(=O)C2CCC2)[C@H]1CO the activation was -0.065% (inactive).

Same assay, conditions: HUVEC E-selectin immunostaining, at 19.5 µM (top of the series), percent of TNF-alpha response over vehicle
With OC(Cc1ccccc1Br)c1ncc(-c2ccc(Cl)cc2)[nH]1 (centres undefined) the activation was 1.34% (inactive).
With CC(C)NC(=O)N(C)C[C@@H]1Oc2ccc(NC(=O)CCN3CCOCC3)cc2C(=O)N([C@H](C)CO)C[C@H]1C the activation was -0.003% (inactive).
For CCCNC(=O)N(C)C[C@H]1Oc2ncc(C3=CCCC3)cc2C(=O)N([C@H](C)CO)C[C@@H]1C, the activation was -0.163% (inactive).
For C[C@H]1CN([C@@H](C)CO)C(=O)c2cc(NC(=O)CCN3CCOCC3)ccc2O[C@@H]1CN(C)S(=O)(=O)c1ccc(Cl)cc1, the activation was -0.142% (inactive).
In the case of Cc1noc(C)c1COc1ccccc1C(=O)N1CCN(S(=O)(=O)c2ccc(F)c(F)c2)CC1, the activation is reported as 0.069% (inactive).
In the case of C[C@H](CO)N1C[C@H](C)[C@H](CN(C)S(=O)(=O)c2ccccc2)Oc2ccc(NC(=O)Nc3ccc(F)cc3)cc2CC1=O, the activation is reported as 0.322% (inactive).
For C[C@H](CO)N1C[C@H](C)[C@@H](CN(C)Cc2ccc(Oc3ccccc3)cc2)Oc2ccc(NC(=O)Nc3ccc(C(F)(F)F)cc3)cc2C1=O, the activation was 0.27% (inactive).
For C[C@@H]1CN([C@H](C)CO)C(=O)c2cc(C#Cc3cccc(F)c3)cnc2O[C@H]1CN(C)C(=O)C1CCC1, the activation was 0.008% (inactive).
With CCNS(=O)(=O)c1ccc(CCC(=O)N2CCN(c3ccc(OC)cc3)CC2)cc1 the activation was -0.027% (inactive).
For CC(=O)NC(Cc1c[nH]c2ccccc12)C(=O)NCCc1ccccn1 (centres undefined), the activation was 0.144% (inactive).
For Cc1noc(C)c1NC(=O)N(C)C[C@@H]1Oc2ccc(NC(=O)Cn3cnnn3)cc2C(=O)N([C@@H](C)CO)C[C@@H]1C, the activation was -0.143% (inactive).
With Cc1nc(N2CCN(c3ccccn3)CC2)c2c(C)c(C(=O)Nc3ccc(F)cc3Cl)sc2n1 the activation was -0.158% (inactive).
In the case of CCOC(=O)[C@]12CCCC=C1N(Cc1ccccc1)C(=O)[C@H](CC(=O)NCc1cccc3ccccc13)C2, the activation is reported as 0.13% (inactive).
In the case of C[C@H](CO)N1C[C@H](C)[C@H](CN(C)C(=O)Nc2ccc(C(F)(F)F)cc2)Oc2ccc(NC(=O)Cn3cnnn3)cc2CC1=O, the activation is reported as 0.063% (inactive).
In the case of Cc1ccc(NCC(=O)N2CCN(S(=O)(=O)c3ccccc3)CC2)cc1F, the activation is reported as 0.075% (inactive).
For Cc1ccc(C(=O)Nc2cc(C)nn2CCC#N)cc1, the activation was 0.178% (inactive).
In the case of C[C@@H]1CN([C@H](C)CO)C(=O)c2cc(N(C)C)ccc2O[C@H]1CN(C)Cc1ccc(C(=O)O)cc1, the activation is reported as -0.039% (inactive).
For C[C@@H]1CN([C@@H](C)CO)C(=O)c2cc(NC(=O)NC3CCCCC3)ccc2O[C@@H]1CN(C)Cc1ccc2c(c1)OCO2, the activation was -0.021% (inactive).
In the case of C[C@@H]1CN([C@@H](C)CO)C(=O)c2cccc(NC(=O)Nc3ccc(F)cc3)c2O[C@H]1CN(C)CC1CCCCC1, the activation is reported as -0.153% (inactive).
For C[C@H](CO)N1C[C@H](C)[C@H](CN(C)Cc2ccc(C(F)(F)F)cc2)Oc2ccc(NS(=O)(=O)c3cn(C)cn3)cc2CC1=O, the activation was -0.066% (inactive).
With C[C@H](CO)N1C[C@H](C)[C@H](CN(C)Cc2ccc(C(F)(F)F)cc2)Oc2ccc(N(C)C)cc2CC1=O the activation was 0.692% (inactive).
In the case of CC1CCN(c2nc3c(=O)[nH]c(N)nc3n2[C@@H]2O[C@H](CO)[C@@H](O)[C@H]2O)CC1, the activation is reported as 0.131% (inactive).
With CCOc1ccc(NC(=O)CNC(=O)c2ccc(OC)cc2)cc1 the activation was 0.033% (inactive).
For CN(Cc1ccsc1)C(=O)CCc1nnc(CCCc2ccccc2)o1, the activation was 1.14% (inactive).
In the case of C[C@H]1CN([C@@H](C)CO)C(=O)c2cccc(NS(C)(=O)=O)c2O[C@@H]1CN(C)Cc1ccncc1, the activation is reported as -0.178% (inactive).
In the case of CCc1nc(=O)c(-c2ccccc2)c(C)n1-c1ccccc1, the activation is reported as -0.02% (inactive).
In the case of Cc1ccccc1NC(=O)c1cc(S(=O)(=O)Nc2cccc(C(=O)O)c2)ccc1Cl, the activation is reported as 0.3% (inactive).
With COc1ccc(N2CCN(C(=O)c3ccccc3NC(=O)C3=C(C)OCCS3)CC2)cc1 the activation was -0.181% (inactive).
For C[C@@H]1CN([C@H](C)CO)C(=O)Cc2cc(NC(=O)Nc3ccc4c(c3)OCO4)ccc2O[C@H]1CN(C)Cc1ccc(Cl)c(Cl)c1, the activation was 0.291% (inactive).
In the case of Cc1noc(C)c1NC(=O)N(C)C[C@H]1Oc2ccc(NC(=O)c3ccncc3)cc2C(=O)N([C@H](C)CO)C[C@@H]1C, the activation is reported as -0.129% (inactive).
For C[C@H]1CN([C@@H](C)CO)C(=O)Cc2cc(NC(=O)Cc3cn(C)c4ccccc34)ccc2O[C@H]1CN(C)Cc1ccc(C(F)(F)F)cc1, the activation was 16.2% (inactive).
With CC(=O)NC1C(=O)N(CCN2CCOCC2)c2ccc(F)cc21 (centres undefined) the activation was -0.179% (inactive).
For Cc1c(C(=O)N2CCN(S(=O)(=O)c3cc(F)ccc3F)CC2)oc2ccccc12, the activation was -0.021% (inactive).
With C[C@H]1CN([C@@H](C)CO)C(=O)c2cccc(NC(=O)C3CC3)c2O[C@H]1CN(C)Cc1ccccc1 the activation was 1.36% (inactive).
For C[C@@H]1CN([C@H](C)CO)C(=O)c2cccc(NS(C)(=O)=O)c2O[C@H]1CN(C)Cc1ccncc1, the activation was 1.77% (inactive).
With C[C@@H]1CN([C@@H](C)CO)C(=O)Cc2cc(NC(=O)C3CC3)ccc2O[C@@H]1CN(C)C(=O)Nc1ccccc1 the activation was 0.276% (inactive).
With C[C@H]1CN([C@@H](C)CO)C(=O)c2cccc(NC(=O)Nc3ccc(F)cc3)c2O[C@H]1CN(C)Cc1ccncc1 the activation was 0.058% (inactive).
With C[C@H](CO)N1C[C@H](C)[C@@H](CN(C)S(=O)(=O)c2ccccc2)Oc2ccc(NC(=O)Nc3ccc(C(F)(F)F)cc3)cc2C1=O the activation was 0.863% (inactive).
With COc1ccc(NS(=O)(=O)c2cccc(Cl)c2Cl)cc1S(=O)(=O)N1CCCCC1 the activation was -0.061% (inactive).
In the case of C[C@H](CO)N1C[C@H](C)[C@@H](CN(C)C(=O)NC2CCCCC2)Oc2ccc(NS(=O)(=O)c3ccccc3)cc2C1=O, the activation is reported as -0.099% (inactive).
For C[C@H]1CN([C@@H](C)CO)C(=O)c2cccc(NC(=O)c3ccncc3)c2O[C@@H]1CN(C)Cc1ccc(C(=O)Nc2ccccc2N)cc1, the activation was 0.014% (inactive).
For Cc1ccc(NCc2n[nH]c(=S)n2-c2ccccc2)cc1, the activation was 1.12% (inactive).
For C[C@H]1CN([C@@H](C)CO)C(=O)Cc2cc(NC(=O)Nc3ccc(F)cc3)ccc2O[C@H]1CN(C)C(=O)Nc1ccc(C(F)(F)F)cc1, the activation was 0.219% (inactive).
In the case of CC(C)N(CCC#N)C(=O)Nc1ccc2c(c1)CCO2, the activation is reported as -0.194% (inactive).
With Cc1ccc(-n2ncc3c(=O)[nH]c(SC(C)C)nc32)cc1 the activation was 0.023% (inactive).
With O=C(NC1CCCC1)c1cc(-c2ccccc2O)on1 the activation was 0.323% (inactive).
For CC(C)NC(=O)Nc1ccc2c(c1)C(=O)N([C@@H](C)CO)C[C@@H](C)[C@@H](CN(C)Cc1ccc(C(F)(F)F)cc1)O2, the activation was 0.127% (inactive).
In the case of C[C@@H]1CN([C@@H](C)CO)C(=O)c2cccc(NS(=O)(=O)c3ccc(F)cc3)c2O[C@H]1CN(C)Cc1ccc(C(=O)O)cc1, the activation is reported as -0.15% (inactive).
For C[C@H](CO)N1C[C@H](C)[C@H](CN(C)Cc2ccc(Cl)c(Cl)c2)Oc2ccc(NS(=O)(=O)c3cccs3)cc2C1=O, the activation was 0.328% (inactive).
With Cc1ccc(N2C(=O)[C@@H]3C(c4cccnc4)=NO[C@@H]3C2=O)c(C)c1 the activation was 0.363% (inactive).
In the case of C[C@@H]1CN([C@H](C)CO)C(=O)c2cc(NC(=O)Cn3cnnn3)ccc2O[C@@H]1CN(C)Cc1ccc(Oc2ccccc2)cc1, the activation is reported as -0.117% (inactive).
With C[C@H](CO)N1C[C@H](C)[C@H](CN(C)Cc2ccc(Oc3ccccc3)cc2)Oc2ccc(NC(=O)CCCCCC(=O)Nc3ccccc3N)cc2CC1=O the activation was 0.312% (inactive).
For Cc1ccc(S(=O)(=O)Nc2cc(S(=O)(=O)N3CCCCC3)ccc2N2CCOCC2)cc1, the activation was 0.047% (inactive).
In the case of C[C@@H]1CN([C@H](C)CO)C(=O)c2cccc(NS(C)(=O)=O)c2O[C@@H]1CN(C)Cc1ccncc1, the activation is reported as -0.083% (inactive).
With C[C@@H]1CN([C@H](C)CO)C(=O)c2cc(NC(=O)Cc3cn(C)c4ccccc34)ccc2O[C@H]1CN(C)Cc1ccc(Cl)c(Cl)c1 the activation was 4.38% (inactive).
In the case of Cc1noc(C)c1NC(=O)Nc1ccc2c(c1)CC(=O)N([C@@H](C)CO)C[C@H](C)[C@H](CN(C)Cc1ccc(Oc3ccccc3)cc1)O2, the activation is reported as 0.075% (inactive).
With CC(=O)Nc1ccc(S(=O)(=O)NNc2cccc(C)c2)cc1 the activation was 0.281% (inactive).

Same assay, conditions: HUVEC E-selectin immunostaining, at 21 µM (top of the series), percent of TNF-alpha response over vehicle
For Cc1noc(C)c1NC(=O)Nc1cccc2c1O[C@@H](CN(C)CC1CCCCC1)[C@H](C)CN([C@@H](C)CO)C2=O, the activation was -0.074% (inactive).
For C[C@H]1CN([C@@H](C)CO)C(=O)Cc2cc(NS(C)(=O)=O)ccc2O[C@@H]1CN(C)Cc1ccc(Oc2ccccc2)cc1, the activation was 4.65% (inactive).
For CC(C)NC(=O)Nc1cccc2c1O[C@@H](CN(C)Cc1ccc(Cl)c(Cl)c1)[C@@H](C)CN([C@H](C)CO)C2=O, the activation was 7.29% (inactive).
With CCNC(=O)C[C@@H]1CC[C@@H]2[C@@H](COc3ccc(NC(=O)Nc4cccc(OC)c4)cc3C(=O)N2C)O1 the activation was 0.153% (inactive).
For C[C@@H]1CN([C@H](C)CO)C(=O)c2cc(NS(C)(=O)=O)ccc2O[C@H]1CN(C)C(=O)Nc1ccc2c(c1)OCO2, the activation was 0.437% (inactive).
With C[C@@H]1CN([C@H](C)CO)C(=O)Cc2cc(NC(=O)Nc3ccc(F)cc3)ccc2O[C@@H]1CN(C)S(=O)(=O)c1ccc(Cl)cc1 the activation was 0.732% (inactive).
In the case of COc1ccc(S(=O)(=O)N(C)C[C@@H]2Oc3ccc(NC(=O)CCCN(C)C)cc3C(=O)N([C@@H](C)CO)C[C@@H]2C)cc1, the activation is reported as -0.143% (inactive).
In the case of C[C@H](NC(=O)C[C@H]1CC[C@H]2[C@H](COc3ccc(NS(=O)(=O)c4ccc(Cl)cc4)cc3C(=O)N2C)O1)c1ccccc1, the activation is reported as 0.192% (inactive).
With CC(C)NC(=O)N(C)C[C@@H]1Oc2ccc(NC(=O)Cn3cnnn3)cc2C(=O)N([C@H](C)CO)C[C@H]1C the activation was -0.15% (inactive).
With COc1ccc(S(=O)(=O)Nc2ccc3c(c2)C(=O)N([C@@H](C)CO)C[C@@H](C)[C@@H](CN(C)Cc2ccc(Cl)c(Cl)c2)O3)cc1 the activation was -0.053% (inactive).
In the case of COc1ccc(S(=O)(=O)N(C)C[C@H]2Oc3ccc(NC(=O)Nc4ccc5c(c4)OCO5)cc3CC(=O)N([C@H](C)CO)C[C@H]2C)cc1, the activation is reported as 0.257% (inactive).
